Data published in patent US20150315202A1, “CHLORIN DERIVATIVE USEFUL IN PHOTODYNAMIC THERAPY AND DIAGNOSIS” (RMW CHO GROUP LIMITED, priority 2012, published 2015).
“And” between values parts separate entries of the source, which are not always exact repeats. Equal entries are not always repeated.

How the values were obtained:
[1] = Singlet oxygen phosphorescence at 1270 nm after pulsed laser excitation; type: physicochemical; details: for Decay time of photosensitized singlet oxygen phosphorescence / Rise time of photosensitized singlet oxygen phosphorescence: air saturated
Experimental: Singlet oxygen phosphorescence was detected using measurement of infrared phosphorescence at 1270 nm corresponding to the transition of oxygen molecules from the singlet to the triplet state. Phosphorescence was recorded at room temperature with the laser phosphorescence spectrometer described at A. A. Krasnovsky Jr., Photodynamic action and singlet oxygen, Biofizika, 2004, 49, 305-321; and A. A. Krasnovsky Jr., Singlet oxygen and primary mechanisms of photodynamic therapy and photodynamic diseases, In: Photodynamic therapy at the cellular level, ed. A. B. Uzdensky, Research Singpost, Kerala, India, 2007, 17-62. For excitation, nanosecond pulses of 511 nm radiation from a copper-vapour laser (Troitzk, Physics Institute of the Russian Academy of Science) were employed. Laser radiation passed additionally through a green light filter SZS-22 (4 mm), which transmitted laser light and cut off IR laser radiation caused by heating of the laser tube. Pulse duration was 20 ns, pulse energy varied from 18 to 40 μJ and the pulse repetition rate was 12 kHz. The laser light was collimated on the surface of a 1 cm rectangular quartz cuvette. The diameter of the illuminated spot on the surface of the cell was 5 mm. For kinetic measurements another spectrometer was used without a monochromator. In this case, phosphorescence resulting from the right angle to the excitation beam was focused on the photocathode of a cooled S-1 photomultiplier (FEU-112) through a cut-off IR light filter and an interference filter with the transmission maximum at 1270 nm. The phosphorescence spectra were measured using a MS-80 high throughput grid monochromator. In this case, phosphorescence was focused on the entry slit of this monochromator. The bandwidth of the monochromator corresponded to a 20 nm spectral interval. The monochromatic light was focused on the photocathode of a cooled S-1 photomultiplier (FEU-83). The photomultiplier signal was registered using time-correlated single photon counting and averaged over many laser pulses. In most experiments, one-channel on time was equal to 81 ns. When the pigment bleaching reached 10%, the solution was replaced by a fresh one and measurement was continued. […] Reasonable phosphorescent curves were obtained after 10-20 minutes signal accumulation and therefore samples were changed many times. As described previously (D. A. Butorina, A. A. Krasnovsky Jr. and A. V. Priezzev, Investigation of the kinetic parameters of singlet molecular oxygen in aqueous porphyrin solutions, Influence of detergents and the quencher sodium azide, Biofizika, 2003, 48, 189-196; A. A. Krasnovsky Jr., Luminescence and photochemical studies of singlet oxygen photonics, J. Photochem. Photobiol. A: Chem., 2008, 196, 210-218; and N. Kuznetsova, D. Makarov, O. Yuzhakova, A. Strizhakov, Y. Roumbal, L. Ulanova, A. Krasnovsky and O. Kaliya, Photophysical properties and photodynamic activity of octacationic oxotitanium(IV) phthalocyanines, Photochemical Photobiological Sciences, 2009, 8, 1724-1733), for computer analysis the following two-exponential equation was used: […]
I(t)I0·[exp(−kdecay·t)−exp(−krise·t)]+n
where kdecay and krise are the rate constants of the decay and rise phases of the phosphorescence curves after a laser pulse, n is the off noise of the photomultiplier, I0 is the zero-time phosphorescence intensity, and I(t) is the phosphorescence intensity at time t. To reduce contribution of the luminescence of the pigment in the quartz cuvette, which was observed shortly after laser pulses, readings were taken starting from 400 ns after laser pulses in ethanol and 1 μs in water. In addition, phosphorescence and kinetic traces were measured also from the control chlorin e4 sodium solutions containing high concentration of sodium azide, which completely quenched singlet oxygen. […]

[2] = system: advanced metastatic kidney disease with metastases in the gall bladder, liver and lung; experiment: In vivo studies Example 3: patient, oral chlorin e4 sodium plus laser and LED light; parameters: species or system human
Experimental: A patient with advanced metastatic kidney disease with metastases in the gall bladder, liver and lung, was treated successfully. The treatment consisted of three courses. For each course, five doses of 62.5-187.5 mg chlorin e4 sodium were administered orally over the course of eight days. 24-48 hours after each oral dose of chlorin e4 sodium, the patient was treated with laser and LED light having a wavelength of 660 nm and 760 nm.
Subsequently the patient was treated with a further two courses. Again, for each course, five doses of 62.5-187.5 mg chlorin e4 sodium were administered orally over the course of eight days. 24-48 hours after each oral dose of chlorin e4 sodium, the patient was treated with laser and LED light having a wavelength of 660 nm and 760 nm. Additionally an interstitial light treatment using a fine needle was performed on the liver and lung with an optical fibre laser having a wavelength of 660 nm and 760 nm.

[3] = system: non-small cell lung cancer with metastases in the lymph nodes and bones; experiment: In vivo studies Example 8: patient, oral chlorin e4 sodium plus laser and LED light; parameters: species or system human
Experimental: A patient with non-small cell lung cancer with metastases in the lymph nodes and bones, was treated successfully. The treatment consisted of two courses. For each course, five doses of 62.5-187.5 mg chlorin e4 sodium were administered orally over the course of eight days. About 24 hours after each oral dose of chlorin e4 sodium, the patient was treated with laser and LED light having a wavelength of 660 nm and 760 nm.

Compound: C=Cc1c(C)c2cc3nc(c(C)c4[nH]c(cc5nc(cc1[nH]2)C(C)=C5CC)c(C)c4C(=O)O)[C@@H](CCC(=O)O)[C@@H]3C [chlorin e4 sodium]
- Pigment bleaching under laser irradiation ([1]; 511 nm laser pulses, solutions changed after each 60-180 s irradiation): bleached rather rapidly
- Decay time of photosensitized singlet oxygen phosphorescence ([1]; Ethanol): 13.5 μs and 13.5 ± 0.3 μs
- Rise time of photosensitized singlet oxygen phosphorescence ([1]; Ethanol): 0.3 ± 0.3 μs
- Decay time of photosensitized singlet oxygen phosphorescence ([1]; Water + 0.2M SDS): 3.85 ± 0.3 μs
- Rise time of photosensitized singlet oxygen phosphorescence ([1]; Water + 0.2M SDS): 1.2 ± 0.3 μs
- Decay time of photosensitized singlet oxygen phosphorescence ([1]; Water): 3.3 ± 0.3 μs
- Rise time of photosensitized singlet oxygen phosphorescence ([1]; Water): 1.8 ± 0.4 μs
- Rise time of singlet oxygen phosphorescence ([1]; ethanol): 300 ns
- Singlet oxygen quantum yield ([1]; ethanol, from phosphorescence kinetic curves, reference TPPS): 0.63±0.05
- Photosensitizing activity ([1]; water without SDS): lower than in ethanol
- Response (PET/CT) ([2]; after a further two courses with interstitial light on liver and lung): good treatment response
- Metastasis ([2]; after three courses): No further metastasis was observed
- Tumours throughout the body (PET/CT) ([2]; before and two, three, five and 15 months after three courses): some tumours disappeared altogether and the remaining tumours reduced in size
- Side effects ([2]; five courses): no side effects
- Survival time ([2]; life expectancy prior to treatment only six months): two years and four months
- Patient status ([3]; 10 months after starting, seven months after completion of treatment): alive and well
- Response of the lungs (PET/CT) ([3]; before and after two courses): many tumours disappearing and the remaining tumours showing no or low metabolic activity
- Side effects ([3]; two courses): no side effects
